Consider one compound from patent US12428428B2, “Tricyclic tetrahydroisoquinoline derivative, preparation method therefor and application thereof in medicine” (JIANGSU HENGRUI MEDICINE CO., LTD., priority 2020, dated 2025).

One experiment deals with ERα (Homo sapiens (Human), UniProt P03372). The experiment can be described thus: Degradation of ERα in MCF-7 cells (ELISA). The class given is cell-based. On the procedure:
ERα-positive breast cancer cell line MCF-7 cells were cultured in a DMEM/F12 medium (HyClone, SH30023.01) containing 10% fetal bovine serum (Corning, 35-010-CV). […] The following day the compounds were serially diluted with DMSO and further diluted with the phenol red-free DMEM/F12 medium containing 5% charcoal-stripped fetal bovine serum. 20 μL of a diluted compound was added to each well of the 48-well plate at final concentrations of 3000, 300, 30, 3, 0.3, 0.03 and 0.003 nM. The 48-well plate was placed in the incubator for 16 to 18 h. A 96-well plate was coated with the capture antibody from the human ERα/NR3A1 total protein assay kit (R&D, DYC5715-5). […] The plate was placed in an incubator at 26° C. overnight. On day 3, the antibody-coated 96-well plate was washed once with PBS, and 200 μL of PBS containing 1% BSA was added to each well. The plate was incubated in an incubator at 37° C. for 1.5 h to be blocked. The cell culture medium supernatant was discarded. The cells were washed once with PBS, and 60 μL of a cell lysis buffer was added to each well. […] The cells were lysed on ice for 15 min, and 300 μL of PBS containing 1 mM EDTA and 0.5% TritonX-100 was added to each well to dilute the urea to 1 M. The blocking buffer in the blocked 96-well plate was discarded, and 100 μL of diluted cell lysis buffer was added to each well. The plate was incubated in an incubator at 37° C. for 2 h and washed 5 times with PBS. A biotinylated assay antibody was diluted to 0.4 μg/mL with PBS containing 1% BSA, and then 100 μL of the assay antibody was added to each well. The plate was incubated in an incubator at 37° C. for 1 h. The plate was then washed five more times, and 100 μL of avidin-HRP diluted 200-fold with PBS containing 1% BSA was added to each well. The plate was incubated at 37° C. for 30 min. The plate was washed five more times, and 100 μL of TMB substrate was added to each well. The plate was incubated at room temperature until blue color appeared, and 100 μL of stop solution was added to each well. OD450 signal values were read using a PHERAstar multi-mode microplate reader. The IC50 values for the inhibitory activity of the compounds were calculated using Graphpad Prism software.
In general terms: ELISA stands for enzyme-linked immunosorbent assay.

The next experiment concerns the target CYP3A4 (Homo sapiens (Human), UniProt P08684). The experiment can be described thus: Inhibition of site of metabolism of testosterone in human liver microsome CYP3A4. The format is in vitro ADME. The conditions noted are these: testosterone substrate. On the procedure: • 1. Phosphate buffer (20×PBS, purchased from Sangon); • 2. NADPH (ACROS, A2646-71-1); • 3. Human liver microsome (Corning Gentest, Cat No, 452161, Lot No. 905002, Donor36); • 4. ABI QTrap 4000 LC-MS System (AB Sciex); • 5. ZORBAX Extend-C18, 3×50 mm, 3.5 μm (Agilent, USA); • 6. CYP probe substrate (testosterone, Vocko, CAS No. [58-22-0]/75 μM) and positive control inhibitor (ketoconazole, SIGMA, Cat No. K1003-100MG).
A 100 mM PBS buffer was prepared. […]. A 0.25 mg/mL microsome solution, a 7.5 mM MgCl2 and a 5 mM NADPH solution were prepared using the buffer. A 30 mM stock solution was diluted with DMSO to obtain 30 mM, 10 mM, 3 mM, 1 mM, 0.3 mM, 0.03 mM, 0.003 mM and 0 mM serial solutions I, which were further diluted 200-fold with phosphate buffer (PBS) to obtain serial test solutions II (150, 50, 15, 5, 1.5, 0.15, 0.015 and 0 μM). A testosterone working solution was diluted with PBS to […].
40 μL of a 0.25 mg/mL microsome solution prepared in 7.5 mM MgCl2 and 20 μL of each of the 375 μM testosterone working solution and the compound working solutions (150, 50, 15, 5, 1.5, 0.15, 0.015 and 0 μM) were measured out and well mixed. Ketoconazole at the same concentration was used in place of the compounds as a positive control group. The mixtures were pre-incubated […] at 37° C. for 5 min at the same time. After 5 minutes, 20 μL of NADPH was added to each well to start reactions. The mixtures were incubated for 30 min. After 30 minutes, 250 μL of internal standard-containing acetonitrile was added to all the samples. The mixtures were well mixed, shaken at 800 rpm for 10 min, and then centrifuged at 3700 rpm for 10 min. 100 μL of the supernatant and 80 μL of ultrapure water were well mixed and subjected to LC-MS/MS analysis.
The IC50 values of the drugs for the site of metabolism of testosterone in CYP3A4 were calculated using Graphpad Prism and are shown in Table 6.
A general note: Microsomes from liver hold many membrane-bound enzymes, among them those of drug oxidation.

Sequence of ERα (P03372 whole entry): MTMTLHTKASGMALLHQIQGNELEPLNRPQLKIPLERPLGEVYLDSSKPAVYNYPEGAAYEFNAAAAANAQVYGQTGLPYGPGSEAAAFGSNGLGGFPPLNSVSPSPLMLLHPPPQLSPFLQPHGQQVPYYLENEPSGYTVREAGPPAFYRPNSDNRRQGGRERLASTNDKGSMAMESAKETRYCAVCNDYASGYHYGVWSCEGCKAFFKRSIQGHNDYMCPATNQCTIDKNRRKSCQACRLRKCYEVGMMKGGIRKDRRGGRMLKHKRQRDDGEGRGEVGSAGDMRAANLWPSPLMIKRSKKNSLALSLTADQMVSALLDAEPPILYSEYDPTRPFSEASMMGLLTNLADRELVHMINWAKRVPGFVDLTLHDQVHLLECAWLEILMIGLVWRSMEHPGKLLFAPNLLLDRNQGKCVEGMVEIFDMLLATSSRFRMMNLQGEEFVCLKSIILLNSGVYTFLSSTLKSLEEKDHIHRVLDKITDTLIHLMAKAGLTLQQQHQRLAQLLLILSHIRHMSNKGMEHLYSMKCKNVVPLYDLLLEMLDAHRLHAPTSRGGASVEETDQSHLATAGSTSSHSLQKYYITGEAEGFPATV
Sequence of CYP3A4 (P08684 whole entry): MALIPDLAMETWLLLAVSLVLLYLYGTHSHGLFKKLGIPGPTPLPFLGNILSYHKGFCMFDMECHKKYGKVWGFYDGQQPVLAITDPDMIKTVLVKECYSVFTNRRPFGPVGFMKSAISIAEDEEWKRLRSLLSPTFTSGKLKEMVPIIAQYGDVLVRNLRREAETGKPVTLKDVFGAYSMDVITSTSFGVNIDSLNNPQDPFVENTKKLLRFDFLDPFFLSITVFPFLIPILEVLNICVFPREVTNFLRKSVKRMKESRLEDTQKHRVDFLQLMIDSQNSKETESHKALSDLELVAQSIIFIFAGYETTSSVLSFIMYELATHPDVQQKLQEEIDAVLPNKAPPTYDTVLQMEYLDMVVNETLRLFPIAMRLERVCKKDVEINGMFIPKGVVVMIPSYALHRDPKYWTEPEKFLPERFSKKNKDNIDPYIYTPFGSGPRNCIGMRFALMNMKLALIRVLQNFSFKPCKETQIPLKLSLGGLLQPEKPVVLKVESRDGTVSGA

A word on the IC50: it is the concentration that inhibits the measured activity by half. As for `C[C@@H]1Cc2cc3c(cc2[C@@H](c2ccc(N[C@H]4CCN(CCCF)C4)cn2)N1CC(F)(F)CO)OCO3` [Example 4, 2,2-Difluoro-3-((5S,7R)-5-(5-(((S)-1-(3-fluoropropyl)pyrrolidin-3-yl)amino)pyridin-2-yl)-7-methyl-7,8-dihydro-[1,3]dioxolo[4,5-g]isoquinolin-6(5H)-yl)propan-1-ol], at ERα (MCF7, read-out: Emax degradation (%)), the Dmax at 3 µM amounted to 115%. Besides, on ERα (MCF-7 cells, 16 to 18 h, read-out: EC50 (nM), degradation of ERα), the DC50 was found to be 0.21 nM. The IC50 on CYP3A4 came to 15.5 µM.
